Assay results taken from publication PMC6026870, “Selective induction of cancer cell death by VDAC1‐based peptides and their potential use in cancer therapy” (Molecular Oncology, 2018).

Key:
A549 cells = assay: Apoptosis, acridine orange/ethidium bromide staining; format: cell-based, human; conditions: A549, 3 h; quantitation, mean ± SE (n = 3) (Fig. 5E)
Protocol: For PI and annexin V–FITC staining, A549 or MDA‐MB‐231 cells, untreated or treated with VDAC1‐based peptides, were collected (1500 g for 5 min), washed, and resuspended in 200 μL binding buffer (10 mM HEPES/NaOH (pH 7.4), 140 mM NaCl, and 2.5 mM CaCl2). Annexin V–FITC staining was performed according to the recommended protocol. Cells were then washed once with binding buffer and resuspended in 200 μL binding buffer, to which PI was added immediately before flow cytometric analysis. At least 10 000 events were collected, recorded on a dot plot, and analyzed by flow cytometer. Acridine orange/ethidium bromide staining was carried as described previously (Zaid et al., 2005), with cells visualized by fluorescence microscopy (Olympus LX2‐KSP, Tokyo, Japan), and images were captured with a CCD camera. About 200 cells were counted for each experiment.

HeLa cells = assay: Cellular ATP levels, luciferase‐based assay (CellTiter‐Glo); format: cell-based, human; conditions: 3 h, percentage of control, mean ± SE (n = 3) (Fig. 4F)
Protocol: Cellular ATP levels were estimated using a luciferase‐based assay (CellTiter‐Glo; Promega). […] ATP levels were assayed according to the manufacturer's protocol, and luminescence was recorded using an Infinite M1000 plate reader (Tecan, Männedorf, Switzerland).

[1] = test system: A549, MDA‐MB‐231 and U‐87MG xenografts; assay: TUNEL assay on xenograft tumor sections; format: in vivo, mouse; conditions: TUNEL staining of paraffin sections; no TUNEL‐positive cells in control HBSS‐TTs (Fig. 7A–C)
Protocol: U‐87MG cells (3 × 10^6/mouse), A549 cells (5 × 10^6/mouse), or MDA‐MB‐231 cells (3 × 10^6/mouse) were inoculated subcutaneously (s.c.) into the hind leg flanks of athymic 8‐week‐old male nude mice (Envigo, Huntingdon, UK). Tumor size was measured using a digital caliper and volume was calculated, and when reached 50–100 mm^3 for each tumor type, mice were randomly divided into two groups (five mice per group). […] The xenografts were injected (two points, 20 μL per tumor) every two days. Beginning on the day of inoculation, mouse weight and tumor volume were monitored twice a week. Experiments were terminated after 14, 29, or 20 days for U‐87MG‐, MDA‐MB‐231‐, or A549‐based tumors, respectively. The mice were sacrificed and tumors were excised. Half of each tumor was fixed in 4% buffered formaldehyde, paraffin‐embedded, and processed for IHC, while the second half was frozen in liquid nitrogen for immunoblotting and qPCR analyses. These experimental protocols were approved by the Institutional Animal Care and Use Committee of Ben‐Gurion University.
Paraffin‐embedded‐fixed tumor sections were processed for a TUNEL assay using the DeadEnd Fluorometric TUNEL system according to the manufacturer's instructions. […]

## CC[C@H](C)[C@H](NC(=O)[C@H](Cc1ccc(O)cc1)NC(=O)[C@@H]1CCCN1C(=O)[C@H](CCCNC(=N)N)NC(=O)[C@H](Cc1c[nH]cn1)NC(=O)[C@@H](CO)NC(=O)[C@@H](Cc1c[nH]c2ccccc12)NC(=O)[C@H](NC(=O)[C@@H](Cc1c[nH]c2ccccc12)NC(=O)[C@@H](CCC(=O)O)NC(=O)[C@@H](CCCCN)NC(=O)[C@@H](CCCCN)NC(=O)[C@@H](CC(C)C)NC(=O)[C@@H](CCC(=O)O)NC(=O)[C@H](NC(=O)[C@@H](C)NC(=O)[C@H](NC(=O)[C@@H](CC(N)=O)NC(=O)[C@@H](CC(C)C)NC(=O)[C@@H](C)NC(=O)[C@@H](Cc1c[nH]c2ccccc12)NC(=O)[C@H](NC(=O)[C@@H](C)NC(=O)CNC(=O)[C@@H](CC(N)=O)NC(=O)[C@@H](CO)NC(=O)[C@@H](CC(N)=O)NC(=O)[C@@H](CCCCN)NC(=O)[C@@H](Cc1c[nH]c2ccccc12)NC(=O)[C@H](NC(=O)[C@@H](Cc1c[nH]c2ccccc12)NC(=O)[C@H](N)CCCCN)[C@H](C)O)[C@H](C)O)C(C)C)[C@H](C)O)[C@H](C)O)C(=O)N[C@@H](C)C(=O)N[C@@H](Cc1c[nH]cn1)C(=O)O [R‐Tf‐D‐LP4]
A549 cells
  apoptotic cell death (acridine orange/ethidium bromide): over 70%
HeLa cells
  decrease of cellular ATP levels: about 40%
[1]
  TUNEL‐positive cells in treated tumors: the majority of the cells were TUNEL‐positive
